Reference: patent US10280198B2, “Therapeutic agents for reducing parathyroid hormone levels” (KAI PHARMACEUTICALS, INC., priority 2009, dated 2019)
Read-outs that look alike come from different tables or passages of the source. Square brackets hold non-standard residues; d marks the D form. Peptide text beside a SMILES is read from it. dNle = CCCC[C@@H](N)C(=O)O; dNva = CCC[C@@H](N)C(=O)O

Experiments:
plasma PTH = assay: In vivo PTH lowering after IV bolus in isoflurane-anesthetized normal Sprague Dawley rats; parameters: species or system rat; settings: Table 7; normal rats, AUC 1-4 h
Procedure: The peptides were administered intravenously at a dose of 0.5 mg/kg into isoflurane-anesthetized normal Sprague Dawley rats. A control group of rats was treated with saline. Blood was drawn prior to dosing and every hour for 4 hours. Rats were maintained under isoflurane anesthesia for the entire study. […] Percent PTH reduction was calculated according to the following formula: AUCcmpd treated/AUCsaline control*100.
An intravenous (IV) bolus of saline was used as a control. Plasma (K2EDTA) PTH levels were assessed prior to dosing and 1, 2, 3 and 4 hours after dosing. Rats were maintained under isoflurane anesthesia for the entire study. […] In FIG. 2B, PTH is shown as percent of the baseline pre-dose value.
A series of compounds having an L-amino acid residue substituted for a D-amino acid residue were prepared. The compounds were administered as an IV bolus to normal Sprague Dawley rats at a dose of 0.5 mg/kg. An intravenous (IV) bolus of saline was used as a control. […] Rats were maintained under isoflurane anesthesia for the entire study.

[1] = system: rat peritoneal mast cells; assay: In vitro histamine induction in rat peritoneal mast cells; assay type: cell-based
Procedure: To further evaluate the relationship between compound structure and histamine release, a series of compounds was prepared and assessed for their ability to trigger induction of histamine in an in vitro assay using rat peritoneal mast cells. In this assay, compounds are incubated at 10 μM for 15 minutes at 37° C. with cells isolated from peritoneal lavage of SD rats. Following incubation, cell medium is collected and histamine is determined.
Accordingly, and as can be appreciated in view of the PTH data and the histamine data described hereinabove, in one embodiment, a compound that has activity to decrease PTH level in a subject in the absence of a histamine response is contemplated. In certain embodiments, absence of a histamine response intends a dose of the compound that produces a less than 10-fold, more preferably 8-fold, still more preferably 5-fold, and even still more preferably 3-fold, increase in histamine, measured in vitro in an assay as described herein, where the fold change is determined based on histamine levels before incubation with the compound and after 15 minutes incubation with compound. In a specific embodiment, the histamine response is determined in an in vitro assay using rat peritoneal mast cells isolated from peritoneal lavage of normal Sprague Dawley rats, and where the fold change is determined based on histamine levels before incubation with the compound and after 15 minutes incubation with compound. In the studies conducted herein, the in vitro evaluation of histamine release was performed using isolated rat peritoneal mast cells isolated by peritoneal lavage using cold HBSS+25 mM HEPES pH 7.4 containing heparin (5 u/mL). Cells were washed twice in stimulation buffer (HBSS+25 mM HEPES pH 7.4) and incubated with 10 μM of compound in stimulation buffer (HBSS+25 mM HEPES pH 7.4) for 15 minutes in a 96-well plate ([…]) at 37° C. Cell supernatant was analyzed for histamine using histamine EIA kit (Cayman #589651).
For in vitro evaluation of histamine release, isolated rat peritoneal mast cells were isolated by performing peritoneal lavage using cold HBSS+25 mM HEPES pH 7.4 containing heparin (5 u/mL). Cells were washed twice in stimulation buffer (HBSS+25 mM HEPES pH 7.4) and incubated with 10 μM of compound in stimulation buffer (HBSS+25 mM HEPES pH 7.4) for 15 minutes in a 96-well plate (10^6/well) at 37° C. Cell supernatant was analyzed for histamine using histamine EIA kit (Cayman #589651).

Compound	0.5 mg/kg IV bolus % PTH AUC of saline control (plasma PTH) [%]	Histamine in vitro Fold change of non-treated at 10 uM [1] [fold]	Histamine in vitro Fold change of non-treated at 10 uM ([1]; Table 9, 10 μM, 15 minutes, 37° C.) [fold]
CCCC[C@@H](NC(=O)[C@@H](CCCNC(=N)N)NC(=O)[C@@H](CCCNC(=N)N)NC(=O)[C@@H](CCCNC(=N)N)NC(=O)[C@@H](CCCC)NC(=O)[C@@H](CS)NC(C)=O)C(=O)N[C@H](CCCNC(=N)N)C(N)=O [SEQ ID NO: 130, Ac-c-dNle-rrr-dNle-r-NH2] (Ac-[dC][dNle][dR][dR][dR][dNle][dR]-NH2)	54	9.2	–
CCC[C@@H](NC(=O)[C@@H](CCCNC(=N)N)NC(=O)[C@@H](CCCNC(=N)N)NC(=O)[C@@H](CCCNC(=N)N)NC(=O)[C@@H](C)NC(=O)[C@@H](CS)NC(C)=O)C(=O)N[C@H](CCCNC(=N)N)C(N)=O [SEQ ID NO: 131, Ac-carrr-dNva-r-NH2] (Ac-[dC][dA][dR][dR][dR][dNva][dR]-NH2)	54	1.8	–
CCC[C@@H](NC(=O)[C@@H](CCCNC(=N)N)NC(=O)[C@@H](CCCNC(=N)N)NC(=O)[C@@H](CCCNC(=N)N)NC(=O)[C@@H](CCC)NC(=O)[C@@H](CS)NC(C)=O)C(=O)N[C@H](CCCNC(=N)N)C(N)=O [SEQ ID NO: 132, Ac-c-dNva-rrr-dNva-r-NH2] (Ac-[dC][dNva][dR][dR][dR][dNva][dR]-NH2)	27	–	4.1
CCCC[C@@H](NC(=O)[C@@H](CCCNC(=N)N)NC(=O)[C@@H](C)NC(=O)[C@@H](CCCNC(=N)N)NC(=O)[C@@H](CCCNC(=N)N)NC(=O)[C@@H](CS)NC(C)=O)C(=O)N[C@H](CCCNC(=N)N)C(N)=O [SEQ ID NO: 133, Ac-crrar-dNle-r-NH2] (Ac-[dC][dR][dR][dA][dR][dNle][dR]-NH2)	26	4.3	–
CCCC[C@@H](NC(=O)[C@@H](CS)NC(C)=O)C(=O)N[C@H](CCCNC(=N)N)C(=O)N[C@H](CCCNC(=N)N)C(=O)N[C@H](CCCNC(=N)N)C(=O)N[C@H](C)C(=O)N[C@H](CCCNC(=N)N)C(N)=O [SEQ ID NO: 134, Ac-c-dNle-rrrar-NH2] (Ac-[dC][dNle][dR][dR][dR][dA][dR]-NH2)	10	2.2	–
CCC[C@@H](NC(=O)[C@@H](CCCNC(=N)N)NC(=O)[C@@H](C)NC(=O)[C@@H](CCCNC(=N)N)NC(=O)[C@@H](CCCNC(=N)N)NC(=O)[C@@H](CS)NC(C)=O)C(=O)N[C@H](CCCNC(=N)N)C(N)=O [SEQ ID NO: 135, Ac-crrar-dNva-r-NH2] (Ac-[dC][dR][dR][dA][dR][dNva][dR]-NH2)	8	1.1	–
CCC[C@@H](NC(=O)[C@@H](CS)NC(C)=O)C(=O)N[C@H](CCCNC(=N)N)C(=O)N[C@H](CCCNC(=N)N)C(=O)N[C@H](CCCNC(=N)N)C(=O)N[C@H](C)C(=O)N[C@H](CCCNC(=N)N)C(N)=O [SEQ ID NO: 136, Ac-c-dNva-rrrar-NH2] (Ac-[dC][dNva][dR][dR][dR][dA][dR]-NH2)	7	2.1	–
